Test results published in ChEMBL document CHEMBL1949500, “Discovery of dimeric inhibitors by extension into the entrance channel of HIV-1 reverse transcriptase” (Bioorg Med Chem Lett, 2012).
pEC50: −log10 of the molar value.

What was measured:
[1] = tested on: Human immunodeficiency virus 1; assay: Antiviral activity against HIV1 3B infected in human MT2 cells assessed as inhibition of virus-induced cytopathic effect by MTT assay; assay type: functional, organism-based; conditions: for pEC50: Human immunodeficiency virus 1, 3B, MT2, read-out: EC50; for EC50: mt2
MT2 = assay: (§1) Cytotoxicity against human MT2 cells by MTT assay; assay type: cell-based; conditions: mt2
[2] = as §1; assay type: cell-based; conditions: MT2 cells

| SMILES | pEC50 [1] | CC50 (MT2) [µM] | EC50 [1] | CC50 [2] [µM] |
| --- | --- | --- | --- | --- |
| COc1nc(Nc2ccc(C#N)c(OCC=C(C)C)c2)nc(OCCCOc2nc(Nc3ccc(C#N)c(OCC=C(C)C)c3)nc(OC)n2)n1 | 6.77 | 21 |  |  |
| COc1nc(Nc2ccc(C#N)c(OCC=C(C)C)c2)nc(OCCOc2nc(Nc3ccc(C#N)c(OCC=C(C)C)c3)nc(OC)n2)n1 | 6.41 | 42 |  |  |
| COCCOc1nc(Nc2ccc(C#N)c(OCC=C(C)C)c2)nc(OC)n1 | 7.01 | 8.6 |  |  |
| CCc1nc(Nc2ccc(C#N)c(OCC=C(C)C)c2)nc(OCCOC)n1 | 7.24 | 2.1 |  |  |
| COCCOCCOCCOc1nc(Nc2ccc(C#N)c(OCC=C(C)C)c2)nc(OC)n1 | 6.42 | 4.2 |  |  |
| COCCOCCOc1nc(Nc2ccc(C#N)c(OCC=C(C)C)c2)nc(OC)n1 | 6.82 | 13 |  |  |
| COc1nc(Nc2ccc(C#N)c(OCC=C(C)C)c2)nc(OCCCCOc2nc(Nc3ccc(C#N)c(OCC=C(C)C)c3)nc(OC)n2)n1 |  | > 100 | Not Active |  |
| CCc1nc(Nc2ccc(C#N)c(OCC=C(C)C)c2)nc(OCCOCCOC)n1 | 6.27 | 9.8 |  |  |
| COc1nc(Nc2ccc(C#N)c(OCC=C(C)C)c2)nc(OCCC2CCCCO2)n1 (racemic) | 5.92 | 4.2 |  |  |
| COc1nc(NCCCNc2nc(Nc3ccc(C#N)c(OCC=C(C)C)c3)nc(OC)n2)nc(Nc2ccc(C#N)c(OCC=C(C)C)c2)n1 |  | 50 | Not Active |  |
| COc1nc(Nc2ccc(C#N)c(OCC=C(C)C)c2)nc(OCCOCCOc2nc(Nc3ccc(C#N)c(OCC=C(C)C)c3)nc(OC)n2)n1 |  | > 100 | Not Active |  |
| Cc1ccnc2c1NC(=O)c1cccnc1N2C1CC1 [NEVIRAPINE] |  |  |  | > 100 |
| COc1nc(Nc2ccc(C#N)c(OCC=C(C)C)c2)nc(OCCN2CCN(C)CC2)n1 | 6.49 | 7 |  |  |
| COc1nc(NCCNc2nc(Nc3ccc(C#N)c(OCC=C(C)C)c3)nc(OC)n2)nc(Nc2ccc(C#N)c(OCC=C(C)C)c2)n1 |  | 6 | Not Active |  |
